Data on 2 molecules can be found in paper PMC12150326 (The Journal of Organic Chemistry, 2025).

Several values for one entry are separate records, joined by “and”; a condition that tells them apart may be missing. Identical values can stand only once. Like-named read-outs stand apart in the source and are kept apart here. Some results are limits rather than exact numbers.

Data set [1] in a line: Experimental rotational energy barrier (thermal racemization, chiral HPLC). The format is physicochemical. As to conditions: 135 °C in xylenes, Eyring equation. The method, then:
(aR)-6 and (aS)-6 were readily separable from one another and racemic iso -6 through the use of a polysaccharide-based chiral column (Diacel IA column) fitted to an automated medium-pressure liquid chromatography unit (Biotage Isolera Prime). Racemization was observable after heating a solution of either enantiopure (aR)- or (aS)-6 at 135 °C in xylenes over a few hours, and the rate of enantiomerization was extrapolated using the Eyring equation (ΔG ^‡ = 31.2 ± 0.3 kcal/mol). (aR)- and (aS )-iso-6 were separable in an analogous fashion using a chiral IC polysaccharide column. […] Thus, we can project that the rotational energy barrier is […] 37 kcal/mol. However, a computationally determined rotational barrier for iso -6 was 33.5 kcal/mol, which is roughly 3 kcal/mol more than that calculated for 6. One potential explanation for this notable difference in configurational stability is the greater double bond character of the methyl-bearing C^4–C^5 carbon of iso -6 in comparison to the C^5–C^6 in 6, as this would both shorten and rigidify this steric-bearing bond (see Scheme A/B for details). […] Studies have previously described differences in rotational barriers of DAAC (2) and its analogous isomer that, while less dramatic, are consistent with this trend (ΔG ^‡ = 22.1 vs 23.4 kcal/mol). […]
IV. Experimental Profiling of Dihedral Angles
Rotational Energy Barrier Determination. A small spatula tip (~0.2 mg) of either (aR)-6 (aka, (aR)-MT-MTC) or (aS)-6 (aka, (aS)-MT-MTC) was diluted in 2 mL o-xylenes in a large vial containing a stir bar. The solution was heated to 135 °C open to air (temperature set to 135 °C, but fluxuated between 134 and 138 °C).
~100 µL aliquots were extracted from solution using a syringe fitted with a long disposable needle at various time intervals and diluted into automated sample vials containing 500 µL CH2Cl2 to rapidly cool. These samples were monitored on Agilent with an analytical HPLC IA column, using 0 – 40% iPrOH in Hexanes gradient over 30 minutes at a flow rate of 0.5 mL/min, and a pressure of roughly 5 bar). Samples eluted approximately 20 minutes into run, with (aR)-6 eluting first, followed by (aS)-6. Three separate runs were carried out, two of which monitored racemization of (aS)-6, and one of which monitored racemization of (aR)- […]
Integration of the HPLC traces were used to determine enantiomeric excess by calculating the difference between the two enantiomers and dividing that by the sum of the two enantiomers, and then multiplying that […]
provided a slope (corresponding to kracemization), and dividing this number […] providing kenantiomerization (or kent in equation below), with units inverse seconds. A summary of data follows (Table S5), and representative chromatograms illustrated in section VI.

For another data set, the system named is NCI-H226. Details: method as in NCI-60 database. As to conditions: NCI-H226 ref NCI-60 database, cited from earlier work.
The test system of another data set is CAKI-1. On the set-up: method as in NCI-60 database. As to conditions: CAKI-1 ref NCI-60 database, cited from earlier work.
The next data set has as its system OVCAR-5. Details: method as in NCI-60 database. To be noted: OVCAR-5 ref NCI-60 database, cited from earlier work.
The next data set deals with COLO 205. On the set-up: method as in NCI-60 database. To be noted: COLO 205 ref NCI-60 database, cited from earlier work.
The next data set concerns HCT-15. Details: method as in NCI-60 database. As to conditions: HCT-15 ref NCI-60 database, cited from earlier work.
A further data set deals with HL-60(TB). On the set-up: method as in NCI-60 database. As to conditions: HL-60(TB) ref NCI-60 database, cited from earlier work.
A further data set relates to SNB-78. Details: method as in NCI-60 database. As to conditions: SNB-78 ref NCI-60 database, cited from earlier work.

In the case of `COc1cc(C)c(-c2ccc(OC)c(=O)cc2C)c(OC)c1OC` (single isomer, unassigned) [(aR)-6], in data set [1], the “ΔG‡ of enantiomerization, experimental” value worked out at 31.2 ± 0.3 kcal/mol.
For the molecule `COc1cc2c(c(OC)c1OC)-c1ccc(OC)c(=O)cc1[C@@H](NC(C)=O)CC2` [Colchicine, (−)-Colchicine], the GI50 – broadly, the concentration at which growth is held to half of that of the control – in the data set on NCI-H226 is 30 nM; with OVCAR-5 it was 76 nM; in the data set on COLO 205 it was 10 nM; with HCT-15, 210 nM; in the data set with HL-60(TB), 10 nM. Moreover, the Log10GI50 in the data set with NCI-H226 was -7.56 Molar; with NCI-H226 (listed as 757/9), -7.18 Molar; with CAKI-1 (listed as 757/1), under -8.00 Molar; in the data set with CAKI-1 (listed as 757/9) it was -6.57 Molar; with OVCAR-5, -7.12 Molar; in the data set with OVCAR-5 (listed as 757/1), -4.48 Molar. Further, the Log10GI50 in the data set with COLO 205 is -7.83 Molar; in the data set with COLO 205 (listed as 757/1) it was -5.74 Molar; in the data set with COLO 205 (listed as 757/21) it was < -8.00 Molar and -7.83 Molar; with HCT-15, -6.68 Molar; in the data set with HL-60(TB) it was -7.89 Molar; in the data set on HL-60(TB) (listed as 757/1), -7.58 Molar. For the same molecule, the Log10GI50 was < -8.00 Molar and -7.89 Molar in the data set on HL-60(TB) (listed as 757/21); -7.88 Molar and < -8.00 Molar in the data set on SNB-78 (listed as 757/21). Besides, the Log10LC50 in the data set with NCI-H226 is given as over -4.00 Molar; with CAKI-1, over -4.00 Molar; with OVCAR-5 it was over -4.00 Molar; in the data set with COLO 205 (listed as 757/21), -7.24 Molar; with HCT-15 (listed as 757/9), -5.60 Molar; in the data set on HCT-15 (listed as 757/21), over -4.00 Molar. The Log10LC50 with HL-60(TB) and in the data set with SNB-78 was over -4.00 Molar each time. The Log10TGI in the data set with NCI-H226 (listed as 757/1) is on record as over -4.00 Molar; in the data set on NCI-H226 (listed as 757/9) it was -7.35 Molar; in the data set on CAKI-1 (listed as 757/1) it was over -4.00 Molar; in the data set on CAKI-1 (listed as 757/9) it was -6.69 Molar; in the data set on COLO 205 (listed as 757/21), -7.89 Molar; in the data set on SNB-78, over -4.00 Molar.
